Source: US20120214818A1, “METHODS OF TREATING DIASTOLIC DYSFUNCTION AND RELATED CONDITIONS” (THE BOARD OF TRUSTEES OF THE UNIVERSITY OF ILLINOIS, priority 2009, published 2012)
“And” between values parts separate entries of the source, which are not always exact repeats. Equal entries are not always repeated.

Tests used:
DOCA-salt and sham mice = test: Invasive hemodynamic (pressure-volume catheter) assessment of diastolic dysfunction, acute ranolazine; assay type: in vivo, mouse; conditions: for DBP, diastolic blood pressure / EDPVR, end diastolic pressure volume relationship (slope) / EF, ejection fraction (invasive) / ESPVR, end systolic pressure volume relationship / HR, heart rate / LVEDP, left ventricular end diastolic pressure / LVESP, left ventricular end systolic pressure / dP/dt max / dP/dt min: ranolazine 5 mg/kg i.v. then 4.8 mg/kg/h; for SBP, systolic blood pressure: ranolazine 5 mg/kg intravenous injection then infusion 4.8 mg/kg/h
Method: Generation of DOCA-salt mouse model: Previously, it was shown that this model leads to mild hypertension, myocardial oxidative stress, and diastolic dysfunction.^20 A gradual and mild elevation in blood pressure was induced by unilateral nephrectomy, subcutaneous implantation of a controlled release deoxycorticosterone acetate (DOCA) pellet (0.7 mg/d; Innovative Research of America, Sarasota, Fla.), and substituting drinking water with 1.05% saline. Control animals underwent a sham operation, had placebo pellet implantation, and received water without salt. Invasive assessment of diastolic dysfunction: Mice were anesthetized with 1-1.5% isoflurane and maintained at 37° C. The pressure-volume (PV) catheter was inserted into the right common carotid artery and advanced into the LV. […] Volume and parallel conductance calibration were performed as previously described.^20 Baseline hemodynamic measurements were obtained, and subsequently, the mice received an intravenous injection of ranolazine (5 mg/kg) followed by an infusion at 4.8 mg/kg/h, while additional hemodynamic measurements were recorded. Blood samples were obtained during the last five minutes of the procedure to determine the plasma ranolazine concentration. Previously, we have shown that this model leads to mild hypertension, myocardial oxidative stress, and diastolic dysfunction.^20 A gradual and mild elevation in blood pressure was induced by unilateral nephrectomy, subcutaneous implantation of a controlled release deoxycorticosterone acetate (DOCA) pellet (0.7 mg/d; Innovative Research of America, Sarasota, Fla.), and substituting drinking water with 1.05% saline. Control animals underwent a sham operation, had placebo pellet implantation, and received water without salt. Mice were anesthetized with 1-1.5% isoflurane and maintained at 37° C. The pressure-volume (PV) catheter was inserted into the right common carotid artery and advanced into the LV. […] Volume and parallel conductance calibration were performed as previously described.^20 Baseline hemodynamic measurements were obtained, and subsequently to determine the acute effect, the mice received an intravenous injection of ranolazine (5 mg/kg) followed by an infusion at 4.8 mg/kg/h, while additional hemodynamic measurements were recorded. Blood samples were obtained during the last five minutes of the procedure to determine the plasma ranolazine concentration.

[1] = system: isolated ventricular myocytes from DOCA-salt and sham mice; test: Calcium transient measurements (Fura-2AM) in isolated cardiomyocytes; assay type: cell-based, mouse; conditions: 10 μM ranolazine
Method: Cell shortening and calcium transient measurements: The mechanical properties of the cardiomyocytes were assessed using an IonOptix Myocam System (Ionoptix Inc., Milton, Mass.). Unloaded cardiomyocytes were placed on a glass slide and allowed to adhere for 10 min. Cardiomyocytes were then imaged with an inverted microscope and perfused with a Tyrode's buffer containing 1.2 mmol/L calcium at room temperature. Cardiomyocytes were paced at 0.5 Hz for 10 ms duration, and sarcomere shortening and relengthening were assessed using the following indices: peak fractional shortening (FS), time to 90% peak shortening, and τ, the relaxation time constant (a0+[…]^t/τ, t=time). […] For calcium transient measurements, cardiomyocytes were loaded with 1 μmol/L Fura 2-AM for 10 min at room temperature, and fluorescence measurements were recorded with a dual-excitation fluorescence photomultiplier system (IonOptix). […] The emitted fluorescence was detected at 510 nm. To take into account any inference from background fluorescence, the background fluorescence for each cardiomyocyte was determined by moving the cardiomyocyte out of the view and recording the fluorescence from the bath solution alone. The mechanical properties of the cardiomyocytes were assessed using an IonOptix Myocam System (Ionoptix Inc., Milton, Mass.). […] The emitted fluorescence was detected at 510 nm. […]

patients = conditions: cited from earlier work
[2] = system: dog model of chronic heart failure; conditions: cited from earlier work

COc1ccccc1OCC(O)CN1CCN(CC(=O)Nc2c(C)cccc2C)CC1 (stereo not shown) [ranolazine]
Pearson correlation coefficient of EDPVR with serum/plasma ranolazine levels (DOCA-salt and sham mice; DOCA-salt mice, n=6, p<0.05): 0.70
DBP, diastolic blood pressure (DOCA-salt and sham mice; DOCA-salt mice): 73 ± 2 mmHg
EDPVR, end diastolic pressure volume relationship (slope) (DOCA-salt and sham mice; DOCA-salt mice): 0.17±0.01 mmHg/μL
EF, ejection fraction (invasive) (DOCA-salt and sham mice; DOCA-salt mice): 67 ± 4%
ESPVR, end systolic pressure volume relationship (DOCA-salt and sham mice; DOCA-salt mice): 4.1 ± 0.2 mmHg/μL
HR, heart rate (DOCA-salt and sham mice; DOCA-salt mice): 588 ± 16 bpm
LVEDP, left ventricular end diastolic pressure (DOCA-salt and sham mice; DOCA-salt mice): 3.5±0.4 mmHg and 3.6 ± 0.4 mmHg
LVESP, left ventricular end systolic pressure (DOCA-salt and sham mice; DOCA-salt mice): 98 ± 3 mmHg
dP/dt max (DOCA-salt and sham mice; DOCA-salt mice): 12,495 ± 555 mmHg/sec
dP/dt min (DOCA-salt and sham mice; DOCA-salt mice): −12,211 ± 792 mmHg/sec
SBP, systolic blood pressure (DOCA-salt and sham mice; DOCA-salt mice): 102 ± 3 mmHg
DBP, diastolic blood pressure (DOCA-salt and sham mice; sham mice): 58 ± 2 mmHg
EDPVR, end diastolic pressure volume relationship (slope) (DOCA-salt and sham mice; sham mice): 0.18±0.01 mmHg/μL
EF, ejection fraction (invasive) (DOCA-salt and sham mice; sham mice): 73 ± 5%
ESPVR, end systolic pressure volume relationship (DOCA-salt and sham mice; sham mice): 3.9 ± 0.5 mmHg/μL
HR, heart rate (DOCA-salt and sham mice; sham mice): 620 ± 5 bpm
LVEDP, left ventricular end diastolic pressure (DOCA-salt and sham mice; sham mice): 4.2 ± 0.5 mmHg
LVESP, left ventricular end systolic pressure (DOCA-salt and sham mice; sham mice): 84 ± 3 mmHg and 85 ± 3 mmHg
dP/dt max (DOCA-salt and sham mice; sham mice): 12,032 ± 787 mmHg/sec
dP/dt min (DOCA-salt and sham mice; sham mice): −10,083 ± 685 mmHg/sec
SBP, systolic blood pressure (DOCA-salt and sham mice; sham mice): 93 ± 3 mmHg
Ca2+ transients [1]: did not affect either group
proarrhythmic risk (patients; clinically relevant doses, MERLIN TIMI 36 investigators): no proarrhythmic risk
relationship with the QTc interval (patients; human, in vivo): positive linear relationship
LVEDP [2]: reduces LVEDP
